From US20260263473A1 (priority 2023, published 2026)

Assay: Blood levels of the actives after the three-compartment transdermal patch in a COVID patient
Format: in vivo, human
Details: for time at which blood levels rose to a peak: transdermal patch (48 mg ivermectin, 300 mg doxycycline, 50 mg zinc chelate; gelling agent and water), adhered to left side of chest for 3 days
Procedure: A patient with diabetes and hypertension had acquired COVID as proven by PCR. […] They were treated with a transdermal patch containing higher dose of active antiviral drugs including 48 mg of ivermectin, 300 mg of doxycycline, and 50 mg of zinc chelate. The transdermal patch had three separate compartments, each compartment containing one of ivermectin, doxycycline and zinc chelate. Each active ingredient was formulated with a gelling agent and water. The patch remained adhered to the left side of the chest for 3 days. Blood levels of each of the ivermectin, doxycycline and zinc chelate rose to a peak at 10 hrs, The patient's cough continued but slowly resolved and they were not breathless. […] The patient oxygen saturation improved within 2 days with oximetry rising to 96%.

[1] = orally treated patients (comparison)
[2] = transdermal patch, adhered to chest for 3 days, one patient

Compound | persistence of blood levels (area under the curve) [1] [h] | time at which blood levels rose to a peak (one patient) [h] | area under the curve compared with single oral medications [2] | persistence of blood levels (area under the curve) [2] [h]
C[C@H]1c2cccc(O)c2C(=O)C2=C(O)[C@]3(O)C(=O)C(C(N)=O)=C(O)[C@@H](N(C)C)[C@@H]3[C@@H](O)[C@@H]21 [doxycycline] | 48 | 10 | greater than that of single oral medications | 140
ivermectin | 48 | 10 | greater than that of single oral medications | 140
